These results are taken from patent US5235061A, “Fungicidal (1H-1,2,4-triazolyl)disilaalkanes” (priority 1991, dated 1993).

Holding throughout (assay): In vitro percent disease control (radii of spore growth on agar)
What all share (format): cell-based

One data set concerns Alternaria mali. The conditions noted are these: Alternaria mali, read-out: % controlled, Al. The protocol:
(§1) The compounds of this invention were dissolved respectively in acetone in an amount equal to 10% of the final volume and then in purified water at the concentration of 100 ppm and 50 ppm.
(§2) Each of the solution was mixed with potato-sucrose-agar medium in a 6" petri dish and one of the fungi was spotted at the center of the dish. The dish was incubated in growth room for several days. The percent disease control was derived from the radii of spore growth. The screening tests in vitro condition are well-known to those skilled in the art.
(§3) The following fungi were used for the screening.

In a further data set the test system is Rhizopus sp. Particulars: Rhizopus, read-out: % controlled, Rhi. sp. As to the method:
as §1, §2, §3

In another data set the test system is Phytophthora capsisi. Particulars: Phytophthora, read-out: % controlled, Phy ca. As to the method:
as §1, §2, §3
2) Phy. ca.; Phytophthora capsisi

For another data set, the system named is Physalospora baccae. The conditions noted are these: read-out: % controlled, Phy ba. As to the method:
as §1, §2, §3
3) Phy. ba.; Physalospora baccae

Data set [1] relates to Botryosphaeria dothidea Macrophoma sp. The conditions noted are these: Botryosphaeria dothidea, read-out: % controlled, Bo.do (Ma.). The protocol:
as §1, §2, §3
4) Bo.do(Ma); Botryosphaeria dothidea Macrophoma sp.

The test system of a further data set is Glomerella cingulata. Particulars: Colletotrichum gloeosporioides, read-out: % controlled, Glo. The protocol:
as §1, §2, §3
5) Glo.; Glomerella cingulata

In a further data set the test system is Pyricalaria oryzae. Particulars: for inhibition of growth at 50 ppm: read-out: % controlled, Py. or., 50 ppm; for inhibition of growth at 100 ppm: read-out: % controlled, Py. or., 100 ppm. The protocol:
as §1, §2, §3
6) Py.or.; Pyricalaria oryzae

For a further data set, the system named is Rhizoctonia solani. Particulars: Rhizoctonia solani, read-out: % controlled, Rhy. so. The protocol:
as §1, §2, §3
7) Rhi.so.; Rhizoctonia solani

In a further data set the test system is Fusarium moniliforme. As to the method: as §1, §2, §3
8) Fu.mo.; Fusarium moniliforme

The next data set concerns Botry tris cinerea. Particulars: read-out: % controlled, Bo ci. As to the method:
as §1, §2, §3
10) Bo.ci.; Botry tris cinerea

With `C[Si](C)(C[Si](Cn1cncn1)(c1ccc(F)cc1)c1ccc(F)cc1)c1ccc(-c2ccccc2)cc1` [2,2-bis(4-fluorophenyl)-4-(4-phenylphenyl)-4-methyl-2,4-disila-1-(1H-1,2,4-triazol-1-yl)pentane], the inhibition of growth at 50 ppm in the data set with Alternaria mali amounted to 46%; in the data set on Rhizopus sp., 29%; with Phytophthora capsisi, 6%; in the data set on Physalospora baccae, 28%; in [1], 47%; with Glomerella cingulata it was 71%. For the same compound, the inhibition of growth at 50 ppm came to 54% in the data set with Pyricalaria oryzae, 65% with Rhizoctonia solani and 18% in the data set on Botry tris cinerea. The inhibition of growth at 100 ppm with Alternaria mali worked out at 46%; in the data set on Rhizopus sp., 29%; with Phytophthora capsisi, 9%; in the data set with Physalospora baccae, 32%; in [1], 49%; with Glomerella cingulata it was 73%. In addition, the figures for the inhibition of growth at 100 ppm with Pyricalaria oryzae, in the data set with Rhizoctonia solani and in the data set on Botry tris cinerea were 57%, 67% and 23%, respectively. Moreover, the “% controlled, Fu. mo.” value in the data set with Fusarium moniliforme (50 ppm) and in the data set with Fusarium moniliforme (100 ppm) was 41% in each case.

Consider `C[Si](C)(C[Si](C)(Cn1cncn1)c1ccc(Cl)cc1)c1ccc(Cl)cc1` (centres unmarked) [2,4-bis(4-chlorophenyl)-2,4-dimethyl-2,4-disila-1-(1H-1,2,4-triazol-1-yl)pentane], for which the inhibition of growth at 50 ppm with Alternaria mali amounted to 54%; with Rhizopus sp., 31%; in the data set on Phytophthora capsisi, 16%; in the data set with Physalospora baccae, 34%; in [1] it was 80%; in the data set on Glomerella cingulata, 70%. The inhibition of growth at 50 ppm in the data set on Pyricalaria oryzae came out at 27%; in the data set with Rhizoctonia solani it was 28%; in the data set with Botry tris cinerea, 33%. Further, the inhibition of growth at 100 ppm stood at 69% in the data set with Alternaria mali; 40% in the data set on Rhizopus sp.; 22% in the data set with Phytophthora capsisi; 37% with Physalospora baccae; 82% in data set [1]; 76% in the data set on Glomerella cingulata. For the same compound, the figures for the inhibition of growth at 100 ppm in the data set with Pyricalaria oryzae, with Rhizoctonia solani and in the data set on Botry tris cinerea were 27%, 42% and 41%, respectively. Also, the “% controlled, Fu. mo.” value was found to be 48% in the data set on Fusarium moniliforme (50 ppm) and 57% in the data set with Fusarium moniliforme (100 ppm).

As to `COc1ccc([Si](Cn2cncn2)(C[Si](C)(C)c2ccc(Cl)cc2)c2ccc(Cl)cc2)cc1` (centres unmarked) [2,4-bis(4-chlorophenyl)-2-(4-methoxyphenyl)-4-methyl-2,4-disila-1-(1H-1,2,4-triazol-1-yl)pentane], the inhibition of growth at 50 ppm in the data set on Alternaria mali was 74%; in the data set with Rhizopus sp., 46%; in the data set on Phytophthora capsisi it was 45%; with Physalospora baccae it was 76%; in data set [1], 75%; with Glomerella cingulata, 76%. Further, the inhibition of growth at 50 ppm with Pyricalaria oryzae is 100%; in the data set on Rhizoctonia solani, 90%; with Botry tris cinerea, 40%. The inhibition of growth at 100 ppm with Alternaria mali was 89%; in the data set with Rhizopus sp., 50%; with Phytophthora capsisi, 65%; with Physalospora baccae, 79%; in data set [1], 79%; in the data set on Glomerella cingulata, 87%. For the same compound, the figures for the inhibition of growth at 100 ppm in the data set with Pyricalaria oryzae, with Rhizoctonia solani and with Botry tris cinerea were 100%, 92% and 43%, respectively. Moreover, the “% controlled, Fu. mo.” value with Fusarium moniliforme (50 ppm) was determined as 42%; with Fusarium moniliforme (100 ppm), 48%.

For the compound `C[Si](C)(C[Si](C)(Cn1cncn1)c1ccc(F)cc1)c1ccc(F)cc1` (centres unmarked) [2,4-bis(4-fluorophenyl)-2,4-dimethyl,2,4-disila-1-(1H-1,2,4-triazol-1-yl)pentane], the inhibition of growth at 50 ppm with Alternaria mali is 38%; with Rhizopus sp., 24%; with Phytophthora capsisi, 3%; in the data set on Physalospora baccae, 22%; in data set [1], 40%; with Glomerella cingulata, 72%. The results for the inhibition of growth at 50 ppm in the data set on Pyricalaria oryzae, with Rhizoctonia solani and in the data set on Botry tris cinerea were 50%, 57% and 0%, respectively. Also, the inhibition of growth at 100 ppm came to 44% in the data set with Alternaria mali; 26% in the data set with Rhizopus sp.; 6% in the data set on Phytophthora capsisi; 22% in the data set with Physalospora baccae; 43% in data set [1]; 73% in the data set on Glomerella cingulata. The inhibition of growth at 100 ppm is 54% in the data set with Pyricalaria oryzae, 60% with Rhizoctonia solani and 10% in the data set with Botry tris cinerea. The “% controlled, Fu. mo.” value with Fusarium moniliforme (50 ppm) is reported as 35%; in the data set on Fusarium moniliforme (100 ppm) it was 38%.

For the compound `CCOc1ccc([Si](C)(C)C[Si](Cn2cncn2)(c2ccc(F)cc2)c2ccc(Cl)cc2)cc1` (centres unmarked) [2-(4-chlorophenyl)-4-(4-ethoxyphenyl)-2-(4-fluorophenyl)-4-methyl-2,4-disila-1-(1H-1,2,4-triazol-1-yl)pentane], the inhibition of growth at 50 ppm with Alternaria mali amounted to 75%; in the data set with Rhizopus sp., 50%; in the data set on Phytophthora capsisi it was 23%; with Physalospora baccae, 69%; in data set [1], 74%; in the data set on Glomerella cingulata, 87%. Besides, the inhibition of growth at 50 ppm with Pyricalaria oryzae was found to be 100%; in the data set with Rhizoctonia solani, 96%; in the data set on Botry tris cinerea, 90%. Moreover, the inhibition of growth at 100 ppm in the data set with Alternaria mali is 79%; in the data set on Rhizopus sp., 50%; with Phytophthora capsisi, 25%; in the data set with Physalospora baccae, 69%; in [1], 79%; with Glomerella cingulata it was 87%. The inhibition of growth at 100 ppm in the data set with Pyricalaria oryzae was 100%; with Rhizoctonia solani, 96%; in the data set with Botry tris cinerea, 90%. Also, the “% controlled, Fu. mo.” value in the data set with Fusarium moniliforme (50 ppm) and in the data set on Fusarium moniliforme (100 ppm) was 46% each time.

As to `C[Si](C)(C[Si](C)(Cn1cncn1)c1ccc(Cl)cc1)c1ccc(F)cc1` (centres unmarked) [2-(4-chlorophenyl)-4-(4-fluorophenyl)-2,4-dimethyl-2,4-disila-1-(1H-1,2,4-triazol-1-yl)pentane], the inhibition of growth at 50 ppm in the data set with Alternaria mali amounted to 38%; in the data set on Rhizopus sp., 18%; in the data set with Phytophthora capsisi it was 0%; with Physalospora baccae, 20%; in data set [1] it was 43%; with Glomerella cingulata it was 67%. Also, the values for the inhibition of growth at 50 ppm in the data set on Pyricalaria oryzae, with Rhizoctonia solani and in the data set on Botry tris cinerea were 46%, 31% and 13%, respectively. In addition, the inhibition of growth at 100 ppm with Alternaria mali came out at 38%; in the data set with Rhizopus sp. it was 20%; in the data set with Phytophthora capsisi it was 0%; in the data set with Physalospora baccae, 20%; in [1], 43%; in the data set with Glomerella cingulata it was 73%. For the same compound, the results for the inhibition of growth at 100 ppm in the data set on Pyricalaria oryzae, with Rhizoctonia solani and with Botry tris cinerea were 48%, 50% and 18%, respectively. For the same compound, the “% controlled, Fu. mo.” value is listed as 34% in the data set on Fusarium moniliforme (50 ppm) and 58% in the data set with Fusarium moniliforme (100 ppm).

`CCOc1ccc([Si](C)(Cn2cncn2)C[Si](C)(C)c2ccc(F)cc2)cc1` (centres unmarked) [2-(4-ethoxyphenyl)-4-(4-fluorophenyl)-2,4-dimethyl-2,4-disila-1-(1H-1,2,4-triazol-1-yl)pentane]: the inhibition of growth at 50 ppm was determined as 38% in the data set on Alternaria mali; 29% in the data set with Rhizopus sp.; 9% with Phytophthora capsisi; 28% in the data set on Physalospora baccae; 40% in data set [1]; 67% in the data set with Glomerella cingulata. Further, the inhibition of growth at 50 ppm in the data set on Pyricalaria oryzae stood at 64%; in the data set on Rhizoctonia solani, 74%; in the data set with Botry tris cinerea, 0%. The inhibition of growth at 100 ppm in the data set on Alternaria mali was found to be 44%; with Rhizopus sp. it was 32%; in the data set on Phytophthora capsisi it was 9%; in the data set with Physalospora baccae, 28%; in data set [1] it was 46%; in the data set on Glomerella cingulata, 69%. Also, the figures for the inhibition of growth at 100 ppm in the data set on Pyricalaria oryzae, in the data set on Rhizoctonia solani and with Botry tris cinerea were 64%, 89% and 0%, respectively. The “% controlled, Fu. mo.” value is recorded as 41% in the data set with Fusarium moniliforme (50 ppm) and 45% in the data set on Fusarium moniliforme (100 ppm).
